Source: patent US20250340549A1, “BICYCLIC HETEROAROMATIC INHIBITORS OF NICOTINAMIDE N-[…], AND COMPOSITIONS AND USES THEREOF” (President and Fellows of Harvard College, priority 2021, published 2025)
Each block holds one compound with its values, some of them ahead of it.

Key:
recombinant human NNMT = target: T1, recombinant human NNMT (Homo sapiens, UniProt P40261); experiment: In vitro NNMT enzyme inhibition assay (Promega MTase-Glo Methyltransferase Assay); type: biochemical; settings: compared with compound 1
T1 sequence (P40261 1-264): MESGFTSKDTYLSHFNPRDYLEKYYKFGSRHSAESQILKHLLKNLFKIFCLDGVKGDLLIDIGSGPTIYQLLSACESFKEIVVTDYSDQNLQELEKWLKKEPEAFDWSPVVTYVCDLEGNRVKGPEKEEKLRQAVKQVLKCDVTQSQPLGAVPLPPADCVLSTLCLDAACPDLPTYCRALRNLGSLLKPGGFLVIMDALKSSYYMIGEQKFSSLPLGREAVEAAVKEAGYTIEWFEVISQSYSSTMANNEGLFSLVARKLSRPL
Description: NNMT biochemical activity for was evaluated for compound 1 (FIG. 1), compound 2 (FIG. 2), compound 6 (FIG. 3), compound 8 (FIG. 4), compound 14 (FIG. 5), compound 16 (FIG. 6), and compound 13 (FIG. 12), using the Promega Mtase-Glo Methyltransferase Assay kit. Compounsd 4A (FIG. 7) and 4B (FIG. 8) were also tested in the assay.
Assays were performed in a white, flat-bottomed 96 well plate. […] Reactions were performed for 20 minutes at room temperature. MTase-Glo reagent and MTase-Glo detection solution were added according to manufacturer's instructions and luminescence signal measured with a SpectraMax i3 plate reader and data analyzed with GraphPad Prism version 9. Scheme 10 depicts a visual summary of the Promega MTase-Glo Methyltransferase assay used to assess biochemical activity of novel inhibitors.

[1] = Mouse PK study (IV and PO) in female C57B16/N; type: in vivo; settings: for Tmax: iv
Description: Doses were freshly prepared on the day of dosing. Vehicle compositions of each dose are listed below. For IV, an appropriate amount of the test article was dissolved in the vehicle with vortexing and/or sonication to achieve a solution with the intended concentration level. For PO, an appropriate amount of the test article was dissolved in the appropriate vehicle; vortex and/or sonication can be used to achieve a solution formulation with the intended concentration level. • IV: 0.5% Tween 80 in saline • PO: 0.2% Tween 80/10% PEG-300 in water. Adjust pH with IN hydrochloric acid to obtain a clear solution
(§1) After dosing, 0.03 mL blood samples were collected from the dorsal metatarsal vein (0.2 mL at final time point via heart puncture) at the following time points: • IV: pre-dose, 0.0833, 0.25, 0.5, 1, 2, 4, 6, 8, 24 hours post dose • PO: pre-dose, 0.25, 0.5, 1, 2, 4, 6, 8, 24 hours post dose
(§2) Blood from each sample was transferred into plastic micro centrifuge tubes with EDTAK2 as an anticoagulant. The blood samples were centrifuged at 4,000 g for 5 minutes at 4° C. to obtain plasma. Samples were immediately frozen in the upright position and stored at −75±15° C. prior to analysis.
Samples were analyzed on a AB Sciex Triple Quad 5500 LC/MS/MS instrument using a Gemini 5 μm C18 110A 150×3 mm column (XBridge BEH C18 2.5 μm 4.6×75 mm in the case of JBSNF-000265) with the following equipment installed.
The mobile phase A was 0.1% formic acid in water, and the mobile phase B was 95% acetonitrile in water (0.1% formic acid), delivered at 0.4 mL/min.
Sample Preparation: The desired serial concentrations of working solutions were achieved by diluting stock solution of analyte with 50% acetonitrile in water solution. 5 μL of working solutions (1, 2, 3, 5, 10, 50, 100, 500, 1000 ng/ml) were added to 5 μL of the blank C57B16/N mouse plasma to achieve calibration standards of 1˜1000 ng/ml (1, 2, 3, 5, 10, 50, 100, 500, 1000 ng/ml) in a total volume of 10 μL. Four quality control samples at 3 ng/mL, 5 ng/mL, 100 ng/mL, and 800 ng/mL for plasma were prepared independently of those used for the calibration curves. These QC samples were prepared on the day of analysis in the same way as calibration standards.
(§3) 10 μL of standards, 10 μL of QC samples and 10 μL of unknown samples (5 μL of plasma with 5 μL of blank solution) were added to 100 μL of acetonitrile (containing D4-1-MNA 50 ng/mL) for precipitating protein respectively. Then the samples were vortexed for 30 s. After centrifugation at 4 degree Celsius, 4,000 rpm for 15 min, the supernatant was diluted 3 times with water. 10 μL of diluted supernatant (20 μL in the case of JBSNF-000265) was injected into the LC/MS/MS system for quantitative analysis.

in vitro = experiment: in vitro
Description: A master solution was prepared according to the following table.
40 μL of 10 mM NADPH solution was added to each well. The final concentrations of NADPH was 1 mM. The mixture was pre-warmed at 37° C. for 5 minutes. The negative control samples were prepared by replacing NADPH solutions with 40 μL of ultra-pure H2O. The negative control was used to exclude the misleading factor that resulted from instability of chemical itself. Samples with NADPH were prepared in duplicate. Negative controls were prepared in singlet.
The reaction was started with the addition of 4 μL of 200 uM control compound or test compound solutions. […] The reaction was stopped by the addition of 4 volumes of cold acetonitrile with IS (100 nM alprazolam, 200 nM imipramine, 200 nM labetalol and 2 uM ketoprofen). Samples were centrifuged at 3, 220 g for 40 minutes. Aliquot of 90 μL of the supernatant was mixed with 90 μL of ultra-pure H2O and then used for LC-MS/MS analysis.
For metabolite standard samples: 1 μL of 400 uM working solution was added to 89 μL master solution following by adding 400 μL of cold acetonitrile with internal standard (IS) (100 nM alprazolam, 200 nM Imipramine, 200 nM labetalol and 2 uM ketoprofen). Then 10 μL of 10 mM NADPH solution or ultra-pure H2O was added to the mixture. Samples were centrifuged at 3,220 g for 40 minutes to precipitate protein. Aliquots of 90 μL supernatant diluted by 90 μL of water was used for LC-MS/MS analysis.

1-MNA = 1-MNA plasma PK parameters in mouse after dosing with compound; type: in vivo; settings: plasma 1-MNA, female C57B16/N
Description: as §1, §2
Sample Preparation: 1-Methylnicotinamide (1-MNA): The desired serial concentrations of working solutions were achieved by diluting stock solution of analyte with 50% acetonitrile in water solution. 5 μL of working solutions (1, 2, 3, 5, 10, 50, 100, 500, 1000 ng/mL) were added to 5 μL of water to achieve calibration standards of 1˜1000 ng/ml (1, 2, 3, 5, 10, 50, 100, 500, 1000 ng/ml) in a total volume of 10 μL. Four quality control samples at 3 ng/ml, 5 ng/mL, 100 ng/mL, and 800 ng/ml for water were prepared independently of those used for the calibration curves. These QC samples were prepared on the day of analysis in the same way as calibration standards.
as §3, with “D4-1-MNA 100” for “D4-1-MNA 50”, “Celsius, 4000” for “Celsius, 4,000”, “water. 5” for “water. 10”, “supernatant” for “supernatant (20 μL in the case of JBSNF-000265)”

[2] = mouse, plasma, 1 mg/kg (Table 5B, title: IV Dosage)
[3] = mouse, plasma, 10 mg/kg (Table 5B, title: IV Dosage)
[4] = mouse, plasma, 50 mg/kg (Table 5B, title: IV Dosage)

activity in the enzyme assay (in words) (recombinant human NNMT): significantly less active
Compound: CNc1cc2ccncc2cn1

activity in the enzyme assay (in words) (recombinant human NNMT): substrate (not inhibitor)
Compound: CNc1cc2cc[nH]c(=O)c2cn1

AUC% Extrap—obs ([1]; 3 mg/kg IV): 0.666%
AUClast/D ([1]; 3 mg/kg IV): 97 ng·h/mL per mg/kg
Cl_obs ([1]; 3 mg/kg IV): 173 mL/min/kg
F ([1]; 10 mg/kg): 10.3%
F ([1]; 50 mg/kg): 32.4%
AUC(0-t) [1, 2]: 97 ng·h/mL
Cmax [1, 2]: 3.66 ng/mL
half-life [1, 2]: 255 min
AUC(0-inf) ([1]; mouse, plasma, 3 mg/kg IV): 292 ng·h/mL
AUC(0-t) ([1]; mouse, plasma, 3 mg/kg IV): 290 ng·h/mL
C0 ([1]; mouse, plasma, 3 mg/kg IV): 864 ng/mL
half-life ([1]; mouse, plasma, 3 mg/kg IV): 25.5 min
MRT inf ([1]; mouse, plasma, 3 mg/kg IV, read-out: MRTInf—obs): 20.8 min
AUC(0-t) [1, 3]: 96.4 ng·h/mL
Cmax [1, 3]: 145 ng/mL
half-life [1, 3]: 143 min
AUC(0-t) [1, 4]: 1540 ng·h/mL
Cmax [1, 4]: 1350 ng/mL
half-life [1, 4]: 473 min
Tmax ([1]; mouse, plasma, 10 mg/kg): 15 min
Tmax ([1]; mouse, plasma, 50 mg/kg): 20 min
Predicted hepatic CL (in vitro; human, 2 uM): <5.12 mL/min/kg
CLint scaled at 2 uM (in vitro; human, microsomes): < 6.79 mL/min/kg
half-life at 2 uM (in vitro; human, microsomes): > 256 min
microsomal CLint at 2 uM (in vitro; human, microsomes): < 5.42 µL/min/mg
Remaining (%) at 60 minutes (in vitro; human, microsomes, 1 h, 2 uM): 86.23%
% Q (mice): percent of compound remaining after 60 minutes of exposure to liver microsomes (in vitro; male, C57B16/N, mouse, microsomes, 1 h, 2 uM): 46.35%
Predicted hepatic CL (in vitro; male, mouse, 2 uM): 50.12 mL/min/kg
CLint scaled at 2 uM (in vitro; male, mouse, microsomes): 113 mL/min/kg
half-life at 2 uM (in vitro; male, mouse, microsomes): 53.6 min
microsomal CLint at 2 uM (in vitro; male, mouse, microsomes): 25.9 µL/min/mg
Remaining (%) at 60 minutes (in vitro; male, mouse, microsomes, 1 h, 2 uM): 46.35%
% Q (human): percent of compound remaining after 60 minutes of exposure to liver microsomes (in vitro; microsomes, 1 h, 2 uM): 86.23%
Compound: CNc1cc2ccnc(N)c2cn1 [Compound 1]
AUClast of 1-MNA (1-MNA; 3 mg/kg IV): 1463 ng·h/mL
AUClast of 1-MNA (1-MNA; 10 mg/kg PO): 934 ng·h/mL
AUClast of 1-MNA (1-MNA; 50 mg/kg PO): 814 ng·h/mL
